Experiments:
Type in all cases: functional
SF-539 = test: Growth inhibition of human SF539 cells assessed as cell growth at 10 uM after 48 hrs by SRB assay relative to control; settings: SF-539, 48 h, read-out: Activity
M14 [1] = test: Growth inhibition of human M14 cells assessed as cell growth at 0.1 uM after 48 hrs by SRB assay relative to control; settings: M14, 48 h, read-out: Activity
OVCAR-5 [2] = test: Growth inhibition of human OVCAR5 cells assessed as cell growth at 10 uM after 48 hrs by SRB assay relative to control; settings: OVCAR-5, 48 h, read-out: Activity
SK-MEL-5 = test: Growth inhibition of human SK-MEL-5 cells assessed as cell growth at 100 uM after 48 hrs by SRB assay relative to control; settings: SK-MEL-5, 48 h, read-out: Activity
M14 [3] = test: Growth inhibition of human M14 cells assessed as cell growth at 100 uM after 48 hrs by SRB assay relative to control; settings: M14, 48 h, read-out: Activity
MDA-MB-435 = test: Growth inhibition of human MDA-MB-435 cells assessed as cell growth at 10 uM after 48 hrs by SRB assay relative to control; settings: MDA-MB-435, 48 h, read-out: Activity
SW-620 = test: Cytotoxicity against human SW620 cells assessed as growth inhibition after 48 hrs by SRB assay; settings: SW-620, 48 h
NCI-H322M = test: Cytotoxicity against human NCI-H322M cells assessed as growth inhibition after 48 hrs by SRB assay
SK-MEL-2 [4] = test: Growth inhibition of human SK-MEL-2 cells assessed as cell growth at 0.1 uM after 48 hrs by SRB assay relative to control; settings: SK-MEL-2, 48 h, read-out: Activity
SNB-75 = test: Growth inhibition of human SNB75 cells assessed as cell growth at 10 uM after 48 hrs by SRB assay relative to control; settings: SNB-75, 48 h, read-out: Activity
SK-MEL-28 [5] = test: Growth inhibition of human SK-MEL-28 cells assessed as cell growth at 1 uM after 48 hrs by SRB assay relative to control; settings: SK-MEL-28, 48 h, read-out: Activity
UO-31 = test: Cytotoxicity against human UO31 cells assessed as growth inhibition after 48 hrs by SRB assay; settings: UO-31, 48 h
MOLT-4 = test: Growth inhibition of human MOLT4 cells assessed as cell growth at 100 uM after 48 hrs by SRB assay relative to control; settings: MOLT-4, 48 h, read-out: Activity
UACC-62 = test: Growth inhibition of human UACC62 cells assessed as cell growth at 10 uM after 48 hrs by SRB assay relative to control; settings: UACC-62, 48 h, read-out: Activity
MDA-MB-231 = test: Growth inhibition of human MDA-MB-231/ATCC cells assessed as cell growth at 0.01 uM after 48 hrs by SRB assay relative to control; settings: MDA-MB-231, 48 h, read-out: Activity
SK-MEL-28 [6] = test: Cytotoxicity against human SK-MEL-28 cells assessed as growth inhibition after 48 hrs by SRB assay; settings: SK-MEL-28, 48 h
ACHN [7] = test: Cytotoxicity against human ACHN cells assessed as growth inhibition after 48 hrs by SRB assay
HOP-92 = test: Cytotoxicity against human HOP92 cells assessed as growth inhibition after 48 hrs by SRB assay; settings: HOP-92, 48 h
OVCAR-8 = test: Growth inhibition of human OVCAR8 cells assessed as cell growth at 0.01 uM after 48 hrs by SRB assay relative to control; settings: OVCAR-8, 48 h, read-out: Activity
A549 = test: Growth inhibition of human A549/ATCC cells assessed as cell growth at 100 uM after 48 hrs by SRB assay relative to control; settings: A549, 48 h, read-out: Activity
OVCAR-5 [8] = test: Growth inhibition of human OVCAR5 cells assessed as cell growth at 100 uM after 48 hrs by SRB assay relative to control; settings: OVCAR-5, 48 h, read-out: Activity
HCC 2998 = test: Growth inhibition of human HCC2998 cells assessed as cell growth at 10 uM after 48 hrs by SRB assay relative to control; settings: HCC 2998, 48 h, read-out: Activity
T47D [9] = test: Growth inhibition of human T47D cells assessed as cell growth at 100 uM after 48 hrs by SRB assay relative to control; settings: read-out: Activity
T47D [10] = test: Growth inhibition of human T47D cells assessed as cell growth at 10 uM after 48 hrs by SRB assay relative to control; settings: read-out: Activity
NCI/ADR-RES = test: Cytotoxicity against human NCI-ADR-RES cells assessed as growth inhibition after 48 hrs by SRB assay
SK-MEL-2 [11] = test: Growth inhibition of human SK-MEL-2 cells assessed as cell growth at 1 uM after 48 hrs by SRB assay relative to control; settings: SK-MEL-2, 48 h, read-out: Activity
ACHN [12] = test: Growth inhibition of human ACHN cells assessed as cell growth at 1 uM after 48 hrs by SRB assay relative to control; settings: read-out: Activity
A498 = test: Growth inhibition of human A498 cells assessed as cell growth at 1 uM after 48 hrs by SRB assay relative to control; settings: A498, 48 h, read-out: Activity
Malme-3M = test: Cytotoxicity against human MALME-3M cells assessed as growth inhibition after 48 hrs by SRB assay
T47D [13] = test: Growth inhibition of human T47D cells assessed as cell growth at 1 uM after 48 hrs by SRB assay relative to control; settings: read-out: Activity
[14] = read-out: LC50 (the source's name)
[15] = read-out: pLC50 (the source's name) (converted)

`COc1ccc2c(c1)CCc1n[nH]c(-c3cc(OC)c(OC)c(OC)c3)c1-2` gave a growth at 10 µM (SF-539) of -24%, a growth at 0.1 µM (M14 [1]) of 1% and a growth at 10 µM (OVCAR-5 [2]) of 31%. It also gave a growth at 100 µM (SK-MEL-5) of -97%, a growth at 100 µM (M14 [3]) of -66% and a growth at 10 µM (MDA-MB-435) of -38%. It also gave a GI50 (SW-620; read-out: GI50) of under 0.01 µM, a CC50 (SW-620; [14]) of 52.2 µM and a TGI (SW-620; read-out: TGI) of 14.5 µM. It also gave a GI50 (SW-620; read-out: pGI50 (converted)) of under 0.01 µM, a CC50 (SW-620; [15]) of 52.5 µM and a TGI (SW-620; read-out: pTGI (converted)) of 14.5 µM. It also gave a GI50 (NCI-H322M; read-out: GI50) of under 0.01 µM, a CC50 (NCI-H322M; [14]) of over 100 µM and a TGI (NCI-H322M; read-out: TGI) of 39.5 µM. For the same compound, the GI50 (NCI-H322M; read-out: pGI50 (converted)) was under 0.01 µM, the CC50 (NCI-H322M; [15]) was over 100 µM and the TGI (NCI-H322M; read-out: pTGI (converted)) was 39.8 µM. For the same compound, the growth at 0.1 µM (SK-MEL-2 [4]) was 40%, the growth at 10 µM (SNB-75) was 22% and the growth at 1 µM (SK-MEL-28 [5]) was 54%. The GI50 (UO-31; read-out: GI50) was under 0.01 µM, the CC50 (UO-31; [14]) was over 100 µM and the TGI (UO-31; read-out: TGI) was 17.3 µM. It also gave a GI50 (UO-31; read-out: pGI50 (converted)) of under 0.01 µM, a CC50 (UO-31; [15]) of over 100 µM and a TGI (UO-31; read-out: pTGI (converted)) of 17.4 µM. For the same compound, the growth at 100 µM (MOLT-4) was 6%, the growth at 10 µM (UACC-62) was 10% and the growth at 0.01 µM (MDA-MB-231) was 34%. It also gave a GI50 (SK-MEL-28 [6]; read-out: GI50) of 1.62 µM, an LC50 (concentration killing 50% of cells) (SK-MEL-28 [6]; read-out: LC50) of 68.8 µM and a TGI (SK-MEL-28 [6]; read-out: TGI) of 21.7 µM. The GI50 (SK-MEL-28 [6]; read-out: pGI50 (converted)) was 1.62 µM, the LC50 (concentration killing 50% of cells) (SK-MEL-28 [6]; read-out: pLC50 (converted)) was 69.2 µM and the TGI (SK-MEL-28 [6]; read-out: pTGI (converted)) was 21.9 µM. It also gave a GI50 (ACHN [7]; read-out: GI50) of under 0.01 µM, an LC50 (ACHN [7]; read-out: LC50) of over 100 µM and a TGI (ACHN [7]; read-out: TGI) of 21.7 µM. It also gave a GI50 (ACHN [7]; read-out: pGI50 (converted)) of under 0.01 µM, an LC50 (ACHN [7]; read-out: pLC50 (converted)) of over 100 µM and a TGI (ACHN [7]; read-out: pTGI (converted)) of 21.9 µM. The GI50 (HOP-92; read-out: GI50) was under 0.01 µM, the CC50 (HOP-92; [14]) was 99.8 µM and the TGI (HOP-92; read-out: TGI) was 28.5 µM. For the same compound, the GI50 (HOP-92; read-out: pGI50 (converted)) was under 0.01 µM, the CC50 (HOP-92; [15]) was 100 µM and the TGI (HOP-92; read-out: pTGI (converted)) was 28.2 µM. It also gave a growth at 0.01 µM (OVCAR-8) of 15%, a growth at 100 µM (A549) of -26% and a growth at 100 µM (OVCAR-5 [8]) of -22%. The growth at 10 µM (HCC 2998) was 5%, the growth at 100 µM (T47D [9]) was -72% and the growth at 10 µM (T47D [10]) was 35%. The GI50 (NCI/ADR-RES; read-out: GI50) was under 0.01 µM, the LC50 (NCI/ADR-RES; read-out: LC50) was over 100 µM and the TGI (NCI/ADR-RES; read-out: TGI) was under 0.01 µM. It also gave a GI50 (NCI/ADR-RES; read-out: pGI50 (converted)) of under 0.01 µM, an LC50 (NCI/ADR-RES; read-out: pLC50 (converted)) of over 100 µM and a TGI (NCI/ADR-RES; read-out: pTGI) of under 0.01 µM. The growth at 1 µM (SK-MEL-2 [11]) was 42%, the growth at 1 µM (ACHN [12]) was 25% and the growth at 1 µM (A498) was -16%. For the same compound, the GI50 (Malme-3M; read-out: GI50) was under 0.01 µM, the CC50 (Malme-3M; [14]) was over 100 µM and the TGI (Malme-3M; read-out: TGI) was 33.9 µM. The GI50 (Malme-3M; read-out: pGI50 (converted)) was under 0.01 µM, the CC50 (Malme-3M; [15]) was over 100 µM and the TGI (Malme-3M; read-out: pTGI (converted)) was 33.9 µM. It also gave a growth at 1 µM (T47D [13]) of 69%.

From ChEMBL document CHEMBL4346757, “Synthesis and biological evaluation of 7-methoxy-1-(3,4,5-trimethoxyphenyl)-4,5-dihydro-2H-benzo[e]indazoles as new colchicine site inhibitors” (Bioorg Med Chem Lett, 2019)
